Assay results reported in patent publication US11891365B2, “3-alkyl-4-amido-bicyclic [4,5,0] hydroxamic acids as HDAC inhibitors” (Valo Health, Inc., priority 2015, dated 2024).

Target: T1, Full length human recombinant HDAC6 protein (Homo sapiens, UniProt Q9UBN7)
T1 sequence (Q9UBN7 1-1215): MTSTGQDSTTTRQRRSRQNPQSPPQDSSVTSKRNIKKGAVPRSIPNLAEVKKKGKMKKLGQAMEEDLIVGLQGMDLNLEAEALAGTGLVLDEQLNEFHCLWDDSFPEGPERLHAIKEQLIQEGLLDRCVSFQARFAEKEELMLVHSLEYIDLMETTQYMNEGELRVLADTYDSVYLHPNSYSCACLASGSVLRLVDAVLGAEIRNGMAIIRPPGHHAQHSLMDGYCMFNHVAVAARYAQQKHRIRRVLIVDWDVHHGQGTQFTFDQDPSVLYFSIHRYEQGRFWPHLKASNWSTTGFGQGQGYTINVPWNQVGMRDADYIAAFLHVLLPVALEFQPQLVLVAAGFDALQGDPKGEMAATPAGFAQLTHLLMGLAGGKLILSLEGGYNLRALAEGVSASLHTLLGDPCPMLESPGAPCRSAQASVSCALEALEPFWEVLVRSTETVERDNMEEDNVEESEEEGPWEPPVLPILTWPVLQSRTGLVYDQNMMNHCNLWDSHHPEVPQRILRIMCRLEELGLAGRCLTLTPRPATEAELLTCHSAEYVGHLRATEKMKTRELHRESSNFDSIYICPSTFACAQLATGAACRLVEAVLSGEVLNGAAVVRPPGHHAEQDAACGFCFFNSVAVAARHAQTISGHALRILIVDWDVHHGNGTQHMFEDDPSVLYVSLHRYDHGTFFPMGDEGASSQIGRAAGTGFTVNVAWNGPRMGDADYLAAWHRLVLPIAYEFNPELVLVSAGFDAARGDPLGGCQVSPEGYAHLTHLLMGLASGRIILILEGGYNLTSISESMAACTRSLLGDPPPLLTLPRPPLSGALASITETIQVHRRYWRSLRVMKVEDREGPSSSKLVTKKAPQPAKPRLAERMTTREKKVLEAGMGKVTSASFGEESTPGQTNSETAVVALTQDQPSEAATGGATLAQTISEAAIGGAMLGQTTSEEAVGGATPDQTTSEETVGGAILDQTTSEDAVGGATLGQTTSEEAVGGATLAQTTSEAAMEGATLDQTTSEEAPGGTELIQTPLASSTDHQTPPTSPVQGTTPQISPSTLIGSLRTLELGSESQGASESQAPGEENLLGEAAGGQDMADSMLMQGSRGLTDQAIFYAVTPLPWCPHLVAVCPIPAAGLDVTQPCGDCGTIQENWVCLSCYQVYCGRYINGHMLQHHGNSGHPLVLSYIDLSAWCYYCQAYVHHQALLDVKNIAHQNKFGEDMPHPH
Experiment: In vitro histone deacetylase assay: enzymatic HDAC6 electrophoretic mobility shift assay
Format: biochemical
Conditions: 1 nM enzyme, 2 μM peptide substrate RHKK(Ac)-NH2, 25° C., 12 concentrations; read-out: Inhibitory Concentration (IC50) Values against HDAC6, Activity Range

Structure (SMILES) | IC50 [nM]
O=C(NO)c1ccc2c(c1)OCCN(C(=O)C1CCC3(CCNCC3)C1)C2 (centres unmarked) [N-hydroxy-4-(8-azaspiro[4.5]decane-2-carbonyl)-2,3,4,5-tetrahydrobenzo[f][1,4]oxazepine-8-carboxamide] | ≤ 100
CN(CC(=O)N1CCOc2cc(C(=O)NO)ccc2C1)S(C)(=O)=O [N-hydroxy-4-(N-methyl-N-(methylsulfonyl)glycyl)-2,3,4,5-tetrahydrobenzo[f][1,4]oxazepine-8-carboxamide] | 100 to 500
O=C(NO)c1ccc2c(c1)OCCN(C(=O)C1COC1)C2 [N-hydroxy-4-(oxetane-3-carbonyl)-2,3,4,5-tetrahydrobenzo[f][1,4]oxazepine-8-carboxamide] | ≤ 100
O=C(NO)c1ccc2c(c1)OCCN(C(=O)C1CCOCC1)C2 [N-hydroxy-4-(tetrahydro-2H-pyran-4-carbonyl)-2,3,4,5-tetrahydrobenzo[f][1,4]oxazepine-8-carboxamide] | ≤ 100
O=C(NO)c1ccc2c(c1)OCC(C1CCOCC1)N(C(=O)C1CCOCC1)C2 (centres unmarked) [N-hydroxy-4-(tetrahydro-2H-pyran-4-carbonyl)-3-(tetrahydro-2H-pyran-4-yl)-2,3,4,5-tetrahydrobenzo[f][1,4]oxazepine-8-carboxamide] | > 500
O=C(NO)c1ccc2c(c1)OCC1(CC1)N(C(=O)C1CCOCC1)C2 [N-hydroxy-4-(tetrahydro-2H-pyran-4-carbonyl)-4,5-dihydro-2H-spiro[benzo[f][1,4]oxazepine-3,1′-cyclopropane]-8-carboxamide] | ≤ 100
O=C(NO)c1ccc2c(c1)OCCN(C(=O)C1CCOC1)C2 (centres unmarked) [N-hydroxy-4-(tetrahydrofuran-3-carbonyl)-2,3,4,5-tetrahydrobenzo[f][1,4]oxazepine-8-carboxamide] | ≤ 100
CC(C)C(=O)N1CCOc2cc(C(=O)NO)ccc2C1 [N-hydroxy-4-isobutyryl-2,3,4,5-tetrahydrobenzo[f][1,4]oxazepine-8-carboxamide] | ≤ 100
CC(C)(C)C(=O)N1CCOc2cc(C(=O)NO)ccc2C1 [N-hydroxy-4-pivaloyl-2,3,4,5-tetrahydrobenzo[f][1,4]oxazepine-8-carboxamide] | ≤ 100
O=C(NO)c1cnc2c(n1)OCCN(C(=O)C1CCOCC1)C2 [N-hydroxy-8-(tetrahydro-2H-pyran-4-carbonyl)-6,7,8,9-tetrahydropyrazino[2,3-f][1,4]oxazepine-3-carboxamide] | 100 to 500
CC(C)(C)OC(=O)N1CCC2(CC1)CC2C(=O)N1CCOc2cc(C(=O)NO)ccc2C1 (centres unmarked) [tert-butyl 1-(8-(hydroxycarbamoyl)-2,3,4,5-tetrahydrobenzo[f][1,4]oxazepine-4-carbonyl)-6-azaspiro[2.5]octane-6-carboxylate] | 100 to 500

More lines, now with the values ahead:

IC50 [nM] | Structure (SMILES)
100 to 500 | CC(C)(C)OC(=O)N1CCC2(CC1)c1ccccc1OC2C(=O)N1CCOc2cc(C(=O)NO)ccc2C1 (centres unmarked) [tert-butyl 2-(8-(hydroxycarbamoyl)-2,3,4,5-tetrahydrobenzo[f][1,4]oxazepine-4-carbonyl)-2H-spiro[benzofuran-3,4′-piperidine]-1′-carboxylate]
100 to 500 | CC(C)(C)OC(=O)N1CCC2(CCC(C(=O)N3CCOc4cc(C(=O)NO)ccc4C3)C2)CC1 (centres unmarked) [tert-butyl 2-(8-(hydroxycarbamoyl)-2,3,4,5-tetrahydrobenzo[f][1,4]oxazepine-4-carbonyl)-8-azaspiro[4.5]decane-8-carboxylate]
100 to 500 | CC(C)(C)OC(=O)N1CCC2(CC1)CC(C(=O)N1CCOc3cc(C(=O)NO)ccc3C1)c1ccccc12 (centres unmarked) [tert-butyl 3-(8-(hydroxycarbamoyl)-2,3,4,5-tetrahydrobenzo[f][1,4]oxazepine-4-carbonyl)-2,3-dihydrospiro[indene-1,4′-piperidine]-1′-carboxylate]
100 to 500 | CC(C)(C)OC(=O)N1CCC2(CC1)OC(C(=O)N1CCOc3cc(C(=O)NO)ccc3C1)c1ccccc12 (centres unmarked) [tert-butyl 3-(8-(hydroxycarbamoyl)-2,3,4,5-tetrahydrobenzo[f][1,4]oxazepine-4-carbonyl)-3H-spiro[isobenzofuran-1,4′-piperidine]-1′-carboxylate]
100 to 500 | CC(C)(C)OC(=O)N1CCC2(CCCC2C(=O)N2CCOc3cc(C(=O)NO)ccc3C2)C1 (centres unmarked) [tert-butyl 6-(8-(hydroxycarbamoyl)-2,3,4,5-tetrahydrobenzo[f][1,4]oxazepine-4-carbonyl)-2-azaspiro[4.4]nonane-2-carboxylate]
100 to 500 | CC(C)(C)OC(=O)N1CC2(CC(C(=O)N3CCOc4cc(C(=O)NO)ccc4C3)CO2)C1 (centres unmarked) [tert-butyl 7-(8-(hydroxycarbamoyl)-2,3,4,5-tetrahydrobenzo[f][1,4]oxazepine-4-carbonyl)-5-oxa-2-azaspiro[3.4]octane-2-carboxylate]
100 to 500 | CC(C)(C)OC(=O)N1CC2(CC(C(=O)N3CCOc4cc(C(=O)NO)ccc4C3)CS2(=O)=O)C1 (centres unmarked) [tert-butyl 7-(8-(hydroxycarbamoyl)-2,3,4,5-tetrahydrobenzo[f][1,4]oxazepine-4-carbonyl)-5-thia-2-azaspiro[3.4]octane-2-carboxylate 5,5-dioxide]
≤ 100 | CC(C)(C)OC(=O)N1CCC2(CCC(C(=O)N3CCOc4cc(C(=O)NO)ccc4C3)CC2)C1 (centres unmarked) [tert-butyl 8-(8-(hydroxycarbamoyl)-2,3,4,5-tetrahydrobenzo[f][1,4]oxazepine-4-carbonyl)-2-azaspiro[4.5]decane-2-carboxylate]
100 to 500 | CC(C)(C)OC(=O)N1CCC2(CCC(C(=O)N3CCOc4cc(C(=O)NO)ccc4C3)CC2)CC1 [tert-butyl 9-(8-(hydroxycarbamoyl)-2,3,4,5-tetrahydrobenzo[f][1,4]oxazepine-4-carbonyl)-3-azaspiro[5.5]undecane-3-carboxylate]
